pEC50: −log10 of the molar value.
Biological target: T1, human β2 adrenergic receptor (Homo sapiens, UniProt P07550)
T1 construct: expressed in transfected cells; host or cells: CHO (Chinese Hamster Ovary) cells, CHOhβ2
Test: Cell based cAMP β2 assay (cAMP-Flashplate, CHOhβ2 cells)
Details: CHO cells recombinantly expressing the human β2 adrenergic receptor
Method: According to another alternative, the agonist potency for the β2 receptor of the compounds of the formula (1) may also be determined by the measure of the concentration of compound according to the present invention required to produce half maximal effect (EC50) for the β2 receptor.
10 mM/100% DMSO (dimethylsulfoxide) stock of compound is diluted to required top dose in 4% DMSO. This top dose is used to construct a 10-point semi-log dilution curve, all in 4% DMSO. […] Data was expressed as % Isoprenaline response.
Cells were seeded to give about 90% confluency for testing.
25 μl/well each dose of compound was transferred into a cAMP-Flashplate® (NEN, SMP004B), with 1% DMSO as basal controls and 100 nM Isoprenaline as max controls. This was diluted 1:2 by the addition of 25 μl/well PBS. […] Compounds were incubated with 50 μu/well cells for 1 hour. […] Dose-response data was expressed as % Isoprenaline activity and fitted using a four parameter sigmoid fit.

T1 sequence (P07550 whole entry): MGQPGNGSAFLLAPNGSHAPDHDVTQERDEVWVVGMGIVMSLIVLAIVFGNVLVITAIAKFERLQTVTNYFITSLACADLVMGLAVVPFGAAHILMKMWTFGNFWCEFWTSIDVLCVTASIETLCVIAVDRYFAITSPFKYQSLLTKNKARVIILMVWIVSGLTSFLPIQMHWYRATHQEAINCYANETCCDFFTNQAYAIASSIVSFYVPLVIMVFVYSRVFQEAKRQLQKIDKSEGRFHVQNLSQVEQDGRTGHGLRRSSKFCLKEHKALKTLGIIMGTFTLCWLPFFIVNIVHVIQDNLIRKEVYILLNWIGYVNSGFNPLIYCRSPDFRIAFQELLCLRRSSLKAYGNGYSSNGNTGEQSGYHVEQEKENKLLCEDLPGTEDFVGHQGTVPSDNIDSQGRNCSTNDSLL

Compound | pEC50
Cc1ccc(CNC(=O)Cc2cccc(C[C@@H](C)NC[C@H](O)c3ccc(O)c(CO)c3)c2)cc1C [Example 12, N-(3,4-Dimethylbenzyl)-2-(3-{(2R)-2-[(2R)-2-hydroxy-2-(4-hydroxy-3-hydroxymethyl-phenyl)-ethylamino]-propyl}-phenyl)-acetamide] | 11.05
C[C@H](Cc1cccc(CC(=O)NCc2ccccc2O)c1)NC[C@H](O)c1ccc(O)c(CO)c1 [Example 3, N-(2-Hydroxybenzyl)-2-(3-{(2R)-2-[(2R)-2-hydroxy-2-(4-hydroxy-3-hydroxymethyl-phenyl)-ethylamino]-propyl}-phenyl)-acetamide] | 11.15
C[C@H](Cc1cccc(CC(=O)NCCc2ccccc2)c1)NC[C@H](O)c1ccc(O)c(CO)c1 [Example 15, 2-(3-{(2R)-2-[(2R)-2-Hydroxy-2-(4-hydroxy-3-hydroxymethyl-phenyl)-ethylamino]-propyl}-phenyl)-N-(2-phenylethyl)acetamide] | 10.25
COc1cccc(OC)c1CNC(=O)Cc1cccc(C[C@@H](C)NC[C@H](O)c2ccc(O)c(CO)c2)c1 [Example 1, N-(2,6-Dimethoxybenzyl)-2-(3-{(2R)-2-[(2R)-2-hydroxy-2-(4-hydroxy-3-hydroxymethyl-phenyl)-ethylamino]-propyl}-phenyl)-acetamide] | 10.77
C[C@H](Cc1cccc(CC(=O)NCc2ccc(Cl)c(Cl)c2)c1)NC[C@H](O)c1ccc(O)c(CO)c1 [Example 5, N-(3,4-Dichlorobenzyl)-2-(3-{(2R)-2-[(2R)-2-hydroxy-2-(4-hydroxy-3-hydroxymethyl-phenyl)-ethylamino]-propyl}-phenyl)-acetamide] | 10.62
C[C@H](Cc1cccc(CC(=O)NCc2ccc(C(N)=O)cc2)c1)NC[C@H](O)c1ccc(O)c(CO)c1 [Example 8, 4-{(2-(3-{(2R)-2-[(2R)-2-Hydroxy-2-(4-hydroxy-3-hydroxymethyl-phenyl)-ethylamino]-propyl}-phenyl)-acetylamino)-methyl}-benzamide] | 11.00
C[C@H](Cc1cccc(CC(=O)NCc2ccc(S(N)(=O)=O)cc2)c1)NC[C@H](O)c1ccc(O)c(CO)c1 [Example 6, N-[4-(Aminosulfonyl)benzyl]-2-(3-{(2R)-2-[(2R)-2-hydroxy-2-(4-hydroxy-3-hydroxymethyl-phenyl)-ethylamino]-propyl}-phenyl)-acetamide] | 11.15
C[C@H](Cc1cccc(CC(=O)NCc2ccccn2)c1)NC[C@H](O)c1ccc(O)c(CO)c1 [Example 7, 2-(3-{(2R)-2-[(2R)-2-Hydroxy-2-(4-hydroxy-3-hydroxymethyl-phenyl)-ethylamino]-propyl}-phenyl)-N-(pyridin-2-ylmethyl)-acetamide] | 10.55
C[C@H](Cc1cccc(CC(=O)NC2Cc3ccccc3C2)c1)NC[C@H](O)c1ccc(O)c(CO)c1 [Example 4, 2-(3-{(2R)-2-[(2R)-2-Hydroxy-2-(4-hydroxy-3-hydroxymethyl-phenyl)-ethylamino]-propyl}-phenyl)-N-indan-2-yl-acetamide] | 10.92
C[C@H](Cc1cccc(CC(=O)NCc2ccc(OC(F)(F)F)cc2)c1)NC[C@H](O)c1ccc(O)c(CO)c1 [Example 10, 2-(3-{(2R)-2-[(2R)-2-Hydroxy-2-(4-hydroxy-3-hydroxymethyl-phenyl)-ethylamino]-propyl}-phenyl)-N-(4-trifluoromethoxybenzyl)-acetamide] | 9.94

From patent US7268147B2, “Compounds useful for the treatment of diseases” (Pfizer Inc, priority 2003, dated 2007)
